This note sets out measurements from ChEMBL document CHEMBL1201862, “PubChem BioAssay data set” (2004).

Molecules are shown by their SMILES.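 Interpolation was linear, between the two tested concentrations surrounding the appropriate level; five concentrations were tested over 48 hours in 96-well plates. The concentration for 50% growth inhibition is given as GI50.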 Calls of active or inactive are those of the source. No stated cut-off is given here; in the data, active = GI50 up to about 1.1 µM and inactive = higher.

Among the test systems are MDA-MB-435; MDA-N; CCRF-CEM; HCT-15; SW-620; NCI-H460; U-251; UACC-62; EKVX; HCT-116; SR; M14; PC-3; SN12C; MCF7; SF-295; NCI-H522; OVCAR-5; A549; HOP-92.
What all share (assay): DTP human tumour cell line panel, 48 h

What is called GI50 is the concentration giving 50% growth inhibition. With `O=C1c2ccccc2CN1c1ccc(OCCN2CCCCC2)cc1`, the GI50 in the assay on MDA-MB-435 is > 10 µM (inactive); in the assay with MDA-N it was > 10 µM (inactive); in the assay with CCRF-CEM, > 10 µM (inactive); in the assay with HCT-15 it was greater than 10 µM; with SW-620, > 10 µM (inactive); in the assay with NCI-H460, > 10 µM (inactive). In addition, the GI50 with U-251, with UACC-62, in the assay with EKVX, in the assay on HCT-116, in the assay with SR and in the assay with M14 was > 10 µM (inactive) each time. The GI50 with PC-3, with SN12C, in the assay on MCF7, with SF-295, with NCI-H522 and in the assay with OVCAR-5 was > 10 µM (inactive) throughout. The GI50 in the assay with A549 and in the assay with HOP-92 was > 10 µM (inactive) in each case.

Regarding `CSc1ccc(NC(=O)Nc2cc(C)ccn2)cc1`, the GI50 in the assay on MDA-MB-435 was > 100 µM (inactive); in the assay with MDA-N it was > 100 µM (inactive); in the assay with CCRF-CEM it was > 100 µM (inactive); with HCT-15, greater than 100 µM; with SW-620, > 100 µM (inactive); in the assay with NCI-H460, > 100 µM (inactive). Further, the GI50 in the assay with U-251, in the assay on UACC-62, in the assay with EKVX, with HCT-116, in the assay with SR and in the assay with M14 was > 100 µM (inactive) each time. Moreover, the GI50 in the assay on PC-3, in the assay on SN12C, in the assay on MCF7, in the assay on SF-295, in the assay on NCI-H522 and in the assay on OVCAR-5 was > 100 µM (inactive) each time. The GI50 in the assay with A549 and in the assay on HOP-92 was > 100 µM (inactive) throughout.

As for `COc1ccccc1/C=C/c1nc2ccccc2o1`, the GI50 in the assay with MDA-MB-435 is > 10 µM (inactive); in the assay with MDA-N it was > 10 µM (inactive); in the assay with CCRF-CEM, > 10 µM (inactive); in the assay on HCT-15, greater than 10 µM; in the assay with SW-620, > 10 µM (inactive); with NCI-H460, > 10 µM (inactive). Besides, the GI50 in the assay with U-251, in the assay on UACC-62, in the assay on EKVX, with HCT-116, in the assay with SR and in the assay on M14 was > 10 µM (inactive) each time. The GI50 with PC-3, in the assay with SN12C, in the assay with MCF7, in the assay on SF-295, in the assay on NCI-H522 and with OVCAR-5 was > 10 µM (inactive) in each case. Further, the GI50 in the assay on A549 was > 10 µM (inactive); in the assay with HOP-92, 6.19 µM (inactive).

Consider `CCC1C(c2ccccc2O)c2cc3c(cc2OC1N1CCOCC1)OCO3` (stereo not given), for which the GI50 in the assay on MDA-MB-435 is 15.6 µM (inactive); with MDA-N, 12.8 µM (inactive); in the assay with CCRF-CEM it was 13.9 µM (inactive); in the assay with HCT-15, 9.4 µM; with SW-620, 15.9 µM (inactive); in the assay on NCI-H460, 14.3 µM (inactive). The GI50 with U-251 is 13.6 µM (inactive); with UACC-62 it was 13.1 µM (inactive); in the assay with EKVX, 12.8 µM (inactive); with HCT-116, 13.6 µM (inactive); in the assay with SR it was 14.5 µM (inactive); in the assay with M14, 15.1 µM (inactive). Further, the GI50 in the assay with PC-3 was 12.5 µM (inactive); with SN12C it was 15.7 µM (inactive); in the assay on MCF7 it was 14.4 µM (inactive); in the assay on SF-295, 14.9 µM (inactive); in the assay with NCI-H522, 12.9 µM (inactive); in the assay with OVCAR-5, 14.9 µM (inactive). In addition, the GI50 in the assay with A549 was 14.4 µM (inactive); in the assay with HOP-92, 13 µM (inactive).

On to `CC1=NN2C(=O)CC(=O)N=C2S1`, for which the GI50 in the assay with MDA-MB-435 was > 100 µM (inactive); with MDA-N, > 100 µM (inactive); in the assay on CCRF-CEM, > 100 µM (inactive); in the assay with HCT-15, greater than 100 µM; in the assay with SW-620, > 100 µM (inactive); in the assay with NCI-H460 it was > 100 µM (inactive). Further, the GI50 with U-251, with UACC-62, in the assay with EKVX, with HCT-116, in the assay on SR and in the assay with M14 was > 100 µM (inactive) throughout. The GI50 with PC-3, with SN12C, in the assay on MCF7, with SF-295, with NCI-H522 and with OVCAR-5 was > 100 µM (inactive) in each case. Besides, the GI50 in the assay on A549 and with HOP-92 was > 100 µM (inactive) each time.
